Data published in PubChem BioAssay (NCI).
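Briefly, cells in 96-well plates were exposed to five compound concentrations for 48 h, and endpoints were estimated by linear interpolation. GI50 marks 50% less growth. TGI: concentration producing complete growth inhibition.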

Legend:
Experiment in all cases: NCI-60 cell line screen, 48 h
[1] = test system: HCC-2998 colon
[2] = test system: SK-MEL-5 melanoma
[3] = test system: LOX IMVI melanoma
[4] = test system: CAKI-1 renal
[5] = test system: TK-10 renal
[6] = test system: ACHN renal
[7] = test system: HCT-116 colon
[8] = test system: EKVX NSCLC
[9] = test system: COLO 205 colon
[10] = test system: PC-3 prostate

SMILES | TGI [1] [nM] | TGI [2] [nM] | TGI [3] [nM] | TGI [4] [nM] | TGI [5] [nM] | TGI [6] [nM] | TGI [7] [nM] | TGI [8] [nM] | TGI [9] [nM] | TGI [10] [nM] | GI50 [1] [nM] | GI50 [2] [nM] | GI50 [3] [nM] | GI50 [4] [nM] | GI50 [5] [nM] | GI50 [6] [nM] | GI50 [7] [nM] | GI50 [9] [nM] | GI50 [10] [nM] | GI50 [8] [nM]
COC(COC(N)=O)C1=C(N2CC2)C(=O)C(C)=C(N2CC2)C1=O (stereo not drawn) | 311 | 128 | 326 | 85 | 2640 | 44.9 | 134 | 1240 | 389 | 1510 | – | – | – | – | – | – | – | – | – | –
CC(C)C[C@H](NC(=O)CNC(=O)c1cc(Cl)ccc1Cl)B(O)O | 43.6 | 30.5 | 59.7 | 67.6 | 51.7 | 15800 | 659 | – | > 38500 | 841 | 19.9 | < 13.6 | 22.4 | < 16.5 | < 13.8 | < 18.2 | < 13.1 | 43.2 | 48.6 | –
Cc1c(-c2cnccn2)ssc1=S | > 100000 | > 100000 | 98800 | > 100000 | 98700 | > 100000 | > 100000 | 90900 | > 100000 | > 100000 | – | – | – | – | – | – | – | – | – | –
Cc1cc2c(C(=O)NC[C@H](C)c3ccccc3)c(O)c(O)cc2c(O)c1-c1c(C)cc2c(C(=O)NC[C@H](C)c3ccccc3)c(O)c(O)cc2c1O | 3080 | 1470 | 4890 | 10000 | 10600 | 3830 | 9590 | 8100 | 5830 | 1460 | 932 | 447 | 539 | 375 | 298 | 296 | 34.6 | 711 | 342 | 411
COc1ccc(C2(Cl)c3ccccc3N(c3ccccc3)c3ccccc32)cc1 | 1530 | 1310 | 1320 | 12500 | 3210 | 10100 | – | 2900 | 2450 | 4110 | 357 | 266 | 282 | 1680 | 516 | 598 | – | 421 | 238 | 250
CCOC(=O)Cc1c(C)c2cc(C(=O)c3ccccc3)c(O)cc2oc1=O | > 100000 | 40000 | > 100000 | > 100000 | > 100000 | > 100000 | > 100000 | 88900 | 37200 | 81200 | – | – | – | – | – | – | – | – | – | –
COc1cc2c(cc1OC(C)C)[C@H](c1ccc(Cl)cc1)N(c1ccc(N(C)CC3CCC(N4CCN(C)C(=O)C4)CC3)cc1)C(=O)C2 (stereo partly drawn) | 7070 | 2840 | 2190 | 4990 | 9340 | 3620 | 2480 | 7810 | 7360 | 5510 | 2590 | 1440 | 516 | 345 | 3630 | 320 | 447 | 2590 | 1980 | 1930
C/C=C(\C)c1cc(=O)c2c(C)cc3c(c2o1)C(=O)c1c(O)c(C2CC(C)(N(C)C)C(OC(C)=O)C(C)O2)cc(C2CC(N(C)C)C(O)C(C)O2)c1C3=O (stereo not drawn) | 2320 | 1590 | 6910 | 5100 | > 30000 | 10000 | 6330 | 5380 | 3050 | 7830 | – | – | – | – | – | – | – | – | – | –
COc1ccc(C(=O)C(CN(C)C)CN(C)C)cc1 | 30000 | 29000 | 5040 | 3560 | 6980 | 2930 | 2630 | 51100 | 2320 | 29900 | 15900 | 15300 | 2080 | 1890 | 2320 | 1560 | 1300 | 1110 | 13200 | 13700
Oc1ccc(C=Nc2ccccc2O)cc1 | > 100000 | 62700 | > 100000 | > 100000 | > 100000 | > 100000 | > 100000 | > 100000 | 91700 | > 100000 | – | – | – | – | – | – | – | – | – | –
CN[C@H]1CN(c2ccc3c(=O)c(C(=O)O)cn(-c4nccs4)c3n2)C[C@@H]1OC | 3580 | 2230 | 3400 | 2240 | 4130 | – | 4580 | 7170 | 2660 | 19400 | 856 | 831 | 266 | 271 | 1100 | – | 437 | 1210 | 1650 | 1970
O=C(CSc1nc2c(n1Nc1ccccc1)-c1ccccc1SC2)Nc1nc(-c2ccc(Cl)cc2)cs1 | > 100000 | > 100000 | > 100000 | – | 58900 | > 100000 | > 100000 | > 100000 | > 100000 | > 100000 | > 100000 | > 100000 | > 100000 | – | 22900 | 35400 | 6370 | 4100 | > 100000 | 23600
COc1cc(/C=C2\CC3C4CC=C5C[C@@H](OC(C)=O)CC[C@]5(C)C4CC[C@]3(C)C2=O)ccc1OCCN1CCCCC1 (stereo partly drawn) | 6590 | 3080 | 3310 | 7640 | 12300 | 14400 | – | 27400 | 30400 | 11200 | 2700 | 1710 | 1260 | 2650 | 3400 | 3640 | – | 3140 | 3510 | 13700
C[C@@H](Oc1cc(-n2cnc3ccc(OC4CCN(C)CC4)cc32)sc1C(N)=O)c1ccccc1Cl | 2980 | 777 | 3690 | 6080 | 5750 | 9190 | 3150 | – | 106 | 6020 | 23.4 | 30.6 | 14.6 | 1080 | 1790 | 212 | 15.6 | 9.26 | 15.3 | –
